# Results: BindingDB's records for doi:10.1016/j.bioorg.2010.11.002 (University of Catania, 2011)
# What was measured:
# Stromelysin-1 = Stromelysin-1 (Homo sapiens, UniProt P08254); experiment: Fluorimetric Assay; details: pH 7; 25 °C
# Collagenase 3 = Collagenase 3 (Homo sapiens, UniProt P45452); experiment: Fluorimetric Assay; details: pH 7; 25 °C
# Stromelysin-1, sequence (P08254 whole entry): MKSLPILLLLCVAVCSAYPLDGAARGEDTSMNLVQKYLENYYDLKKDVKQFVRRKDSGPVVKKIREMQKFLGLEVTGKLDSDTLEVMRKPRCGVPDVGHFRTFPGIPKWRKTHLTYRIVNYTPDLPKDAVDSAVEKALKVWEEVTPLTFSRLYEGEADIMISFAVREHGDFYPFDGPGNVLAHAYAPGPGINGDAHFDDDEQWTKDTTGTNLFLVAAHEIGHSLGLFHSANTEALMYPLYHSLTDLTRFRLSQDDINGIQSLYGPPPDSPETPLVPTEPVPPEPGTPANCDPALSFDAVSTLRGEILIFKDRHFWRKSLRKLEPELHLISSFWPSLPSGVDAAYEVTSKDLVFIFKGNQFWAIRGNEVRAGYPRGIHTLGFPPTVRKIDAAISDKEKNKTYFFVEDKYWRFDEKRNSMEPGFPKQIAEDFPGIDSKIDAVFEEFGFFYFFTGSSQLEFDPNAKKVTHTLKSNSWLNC
IC50 (Stromelysin-1) [µM],IC50 (Collagenase 3) [µM],SMILES
36.7,–,"Oc1csc(Nc2nc3ccccc3s2)n1 [2-(benzo[d]-thiazol-2-ylimino)-thiazolidin-4-one, 1a]"
–,32,"O=C1N/C(=N/c2nsc3ccccc23)S/C1=C/c1ccccc1 [2-(benzo[d]isothiazol-3-ylimino)-5-benzylidenethiazolidin-4-one, 2b]"
